“Also recorded” adds a separate entry of the source. Like-named read-outs stand apart in the source and are kept apart here.
Tests used:
Format in all cases: physicochemical
[1] = Aqueous surfactant equilibration of Form A: conversion into Form B monitored by XRPD
Procedure: A sample of Form A was micronised using an AS100 spiral jet mill (Alpine) with a ZD9 screw dosing system at a milling gas pressure of 5.0 bar (18° C.) and an injection gas pressure of 6.0 bar (18° C.). Feed rate was 350 g/hr.
Form A and micronised Form A were added to purified water containing the surfactants shown in Table 6, and the mixtures were stirred at 20° C.
Sub samples (300 to 500 μl) were withdrawn at the appropriate time points. The mixtures were centrifuged, the clarified supernatant was decanted, and the pellet was oven dried (20° C., 24 h) and analysed by XRPD. […] The time taken for complete conversion of Form A into Form B was concluded when Form A was no longer detectable by XRPD.
A micelle is an aggregate of surfactant molecules dispersed in a liquid colloid. Micelles form only when the concentration of surfactant is greater than the critical micelle concentration (CMC). • Surf 1: TWEEN® 80 (polysorbate 80; polyoxyethylene sorbitan monooleate) Critical Micellar Concentration (CMC) 13-15 mg/litre [actual concentration used=1 mg/ml, 1000 mg/litre>CMC] • Surf 2: TWEEN® 20 (polysorbate 20; polyethylene glycol sorbitan monolaurate) 20 Critical Micellar Concentration (CMC) ca 61 mg/litre [actual concentration used=0.5 mg/ml, 500 mg/litre>CMC] • Surf 3: SPAN® 20 (sorbitan monolaurate) no CMC in water, too hydrophobic and yet still exerted an inhibitory effect on the form conversion • Surf 4: TWEEN® 80 Critical Micellar Concentration (CMC) 13-15 mg/litre [actual concentration used=0.01 mg/ml, 10 mg/litre<CMC] • TWEEN® surfactants are soluble in water and SPAN® surfactants are oil soluble and not able to form micelles in water.

[2] = Suspension equilibrations of Form A (Example 7)
Procedure: Compound 1 Form A, (ca 50 mg, 1.0 wt) and the appropriate solvent (1000 μl, 20 vol) were charged to separate vessels and stirred for 7 days at 20° C. After this time the products were cooled, isolated by filtration, washed with recycled maturation solvent, dried under reduced pressure at 40° C. and analysed by XRPD for evidence of alternative crystalline forms.
Separate portions of Compound 1, Form A (ca 50 mg, 1.0 wt.), and the appropriate solvent (1000 μl, 20 vol.) were charged to separate vessels and stirred for 7 days at 40° C. After this time, the products were cooled, isolated by filtration, washed with recycled maturation solvent, dried under reduced pressure at 40° C. and analysed by XRPD for evidence of alternative crystalline forms. N.B. water was also included in this screen. • All of the products corresponded to Form A, except the product isolated from tBME (Form D), and from THF (Form G; see FIG. 18). […] C. Aqueous Suspension Equilibrations of Form A at 20° C.
Separate portions of Compound 1, Form A (ca 50 mg, 1.0 wt.), and the appropriate solvent (950 μl, 19 vol) and purified water (50 μl, 1.0 vol) were charged to separate vessels and stirred for 7 to 10 days at 20° C. […] Form C is an anhydrous form, and sometimes occurs in the presence of aromatic solvents (toluene and trifluorotoluene).

[3] = Thermocycling of Form B(I) in buffered aqueous suspensions (Form A control); conditions: −10° C. to +40° C.
Procedure: Form B(I) was prepared in the relevant formulation under sterile conditions. The samples were thermocycled for approximately 202 complete cycles. Off-line analyses of the suspensions were performed by polarised light microscopy and end point sampling was performed on the isolated solid pellets of the suspensions after centrifugation. The thermocycling incorporated a wide temperature range (−10° C. to +40° C.). A parallel study was performed using micronised Form A as control.
In all cases, the suspension volume was 2 ml and thermocycling was carried out over a temperature range −10° C. to +40° C. at a rate of change of 1° C./min for a duration of 336 hours (14 days) and […] cycles.
At daily intervals, a droplet from each thermocycle suspension was withdrawn, placed on a microscope slide and photographed. After 14 days constant thermocycling, the suspensions were filtered, isolable solids were oven dried and analysed for evidence of form change and change in chemical purity.

[4] = Competitive suspension equilibrations in acetonitrile; conditions: acetonitrile (20 vol)
Description: Form A of Compound 1 and the appropriate other form(s) of Compound 1 were suspended in acetonitrile (20 vol). […] When completed, the products were isolated, oven dried and analysed by XRPD.

[5] = Dynamic vapour sorption (DVS) of Form A
Procedure: The moisture sorption properties of the feed API were analysed by DVS (DVS Intrinsic,
Surface Measurement System). Approximately 50 mg of API was weighed into an aluminium pan and loaded into the instrument at 25° C. The sample was allowed to equilibrate under dry atmosphere (0% relative humidity) for 1 hour before increasing the humidity from 0% to 30% at 5% step increment and from 30% to 90% at 10% step increment. A desorption cycle was also applied from 90% to 30% (10% step) and from 30% to 0% (5% step). A rate of change by time was set as the equilibrium parameter (1 hour each step). Kinetic and isotherm graphs were calculated.

[6] = Thermocycling of Form A, Form B(I) and Form B(II) in purified water; conditions: purified water (10 vol), −10 to +10° C., ±0.5° C./minute, 75 h
Procedure: Samples of Compound 1, Form A, Form B(I) and Form B(II) were charged to separate Crystal 16 blank, glass vials and purified water (1 ml, 10.0 vol) was added each vial. Each vial underwent thermocycling from −10 to +10° C. at a ramp rate of ±0.5° C./minute, over 75 h.

[7] = Suspension equilibration of Form B(II) in acetonitrile/water
Procedure: To further investigate the stability hierarchy of Form B (I) and Form B (II), an equal portion of both Form B (I) and Form B (II) were competitively slurry ripened in 4 to 1 MeCN/Water (w/w) for 3 days.
One portion of Form B(II) (1.06 g) was charged with 4 to 1 v/v acetonitrile/water (15 vol, 15 ml). This was stirred at room temperature with a flow of nitrogen. The mixture was subsampled at t=4 h and t=23 h. The subsamples were centrifuged down (13400 rpm for 15 min), supernatants were removed and dried overnight in oven at 40° C. under reduced pressure.

[8] = Suspension equilibration of Form B(II) in purified water; conditions: room temperature
Procedure: One portion of Form B(II) (1.0 g) was charged with purified water (15 vol, 15 ml). This was stirred at room temperature with a flow of nitrogen for 20 h. The mixture was subsampled at t=2 h and t=20 h. The subsampled mixture was centrifuged down (13400 rpm for 15 min) and supernatant was removed. The remaining solid was dried (at t=3 days) in the oven under reduced pressure at 40° C. overnight. The dried white solid (A0903-184-C1, 0.84 g, 83% yield not corr.). The result for the sample at 3 days are not shown as these are the same as the subsample taken at 20 hours.

[9] = Suspension equilibration of Form B in anhydrous acetonitrile; conditions: room temperature
Procedure: One portion of Form B(II) (1.01 g) was charged with anhydrous acetonitrile (15 vol, 15 ml).
This was stirred at room temperature with a flow of nitrogen. The mixture IPC was subsampled at t=3 h and t=23 h. The subsampled mixtures were centrifuged down (13400 rpm for 15 min), supernatants were removed and dried overnight in oven at 40° C. under reduced pressure. The remaining solid was dried (t=2 days) in oven overnight under reduced pressure at 40° C. overnight. The dried white solid (0.54 g, 54% yield not corr.) was analysed by XRPD and DSC.
A similar procedure was carried out for a portion of Form B(I) (1.06 g). Int his case, the mixture was subsampled at t=5 h and isolation was carried out at t=5 days. The uncorrected yield was 66%.

[10] = Compaction of Forms B(I) and B(II) (ca 10 tonnes)
Description: Assuming that the inconsistencies between the dehydration behaviours of the two batches were attributed to different locations and bindings of their water occupancies, both were examined after 10 tonne compaction, to determine if their dehydration features were conserved or altered after the application of equal pressure treatments.
A finely divided specimen of Form B(II) was applied evenly to the smooth surface of the lower sample anvil that was located inside the compression cell apparatus. A second smoothed face anvil was placed above the first and the sample was pressed into place using finger pressure. The sealed sample cell was then evacuated under house vacuum pressure for at least 5 minutes. An axial load of ca 10 metric tonnes was applied to the upper anvil and the specimen was maintained under a state of unilateral compression for at least 15 minutes. After which time, the apparatus was dismantled and the product was retrieved from the sample holder and analysed to determine if any phase modifications had taken place.

[11] = micronised (particle size 2 μm), 20° C., with or without surfactant
[12] = citrate buffered surfactant suspensions, 1° C./min, 14 days

Compound: CC(C)(C)NC(=O)c1cc(NC(=O)Cc2cc(Cl)ccc2O)ccn1 [Form A, N-tert-Butyl-4-[[2-(5-chloro-2-hydroxy-phenyl)acetyl]amino]pyridine-2-carboxamide]
- storage stability of Form A in pre-made composition (surfactant present) ([1]; 20 to 40° C. storage conditions): 120 h
- Form B in aqueous suspension of Form A ([1]; 24 hour time point): no Form B can be detected
- form present in aqueous suspension of Form A ([1]; after 8 days): substantially all of the Compound 1 was present as the Form B hydrate crystalline form
- time after which micronised Form A had almost completely converted into Form B [1, 11]: 146 h
- time after which micronised Form A had started to convert to Form B [1, 11]: 48 h
- form after suspension equilibration in purified water only (XRPD) ([2]; 20° C., 7 to 10 days): partial conversion into Form B
- form after suspension equilibration in purified water (XRPD) ([2]; 40° C., 7 days): Form A, no Form B was evident
- form stability in solvent suspension (XRPD) ([2]; anhydrous solvents (20 vol), 20° C., 7 days): resilient to prolonged solvent mediated treatments
- form after thermocycling (XRPD) ([3]; citrate buffered Tween® 20/Span® 22, 14 days, 1° C./min): converted to Form B
- form after thermocycling (XRPD) ([3]; citrate buffered Tween® 80, 14 days, 1° C./min): converted to Form B
- time point of first morphological change (polarised light microscopy) ([3]; citrate buffered surfactant suspensions, 1° C./min): eight day
- form stability to constant thermocycling (XRPD, DSC, TGA, microscopy) [3, 12]: changed into Form B(I)
- chemical purity after thermocycling ([3]; 14 days, accompanying the form change): No reduction in chemical purity
- Output form (XRPD) ([4]; 40 ° C., stirred 7 days): Form A
- hydrate formation, XRPD repeated after the DVS test [5]: no hydrate was formed
- hygroscopicity / moisture affinity by DVS [5]: not hygroscopic
- change in mass (uptake of water) by DVS ([5]; 90% relative humidity (RH), 25° C.): 0.02%
- form change by XRPD and DSC after thermocycling [6]: did not change

Compound: CC(C)(C)NC(=O)c1cc(NC(=O)Cc2cc(Cl)ccc2O)ccn1 [Form A + Form D (1/1 w/w)]
- Output form (XRPD) ([4]; 40 ° C., stirred 7 days): Form A

Compound: CC(C)(C)NC(=O)c1cc(NC(=O)Cc2cc(Cl)ccc2O)ccn1 [Form B (I) and Form B (II)]
- resulting solid (DSC) after competitive slurry ripening ([7]; 4 to 1 MeCN/Water (w/w), 3 days): Form B (I)

Compound: CC(C)(C)NC(=O)c1cc(NC(=O)Cc2cc(Cl)ccc2O)ccn1 [Form B(II), N-tert-Butyl-4-[[2-(5-chloro-2-hydroxy-phenyl)acetyl]amino]pyridine-2-carboxamide]
- form after suspension equilibration in purified water (DSC) ([8]; 2 hours): only the unimodal event was observed; also recorded: converted to Form B(I)
- form after suspension equilibration in purified water (DSC) ([8]; 20 hours and three days): converted to Form B(I)
- form after stirring in 4 to 1 v/v acetonitrile/water (DSC, XRPD) ([7]; room temperature, t=4 h and t=23 h): production of Form B(I); also recorded: converted to Form B(I)
- form after suspension equilibration in anhydrous acetonitrile (XRPD) ([9]; 3 hours, 23 hours and 3 days substantially the same): rapidly converted to Form A
- degree of crystallinity by XRPD before compression [10]: 87.2%
- form after 10 tonne compaction (DSC) [10]: converted to Form B(I)
- degree of crystallinity by XRPD after compression ([10]; ca 10 metric tonnes): 80.3%
- form after 10 tonne compaction (DSC) ([10]; listed as Form B (II)): Form B (I) emerged
- form change by XRPD and DSC after thermocycling [6]: almost all converted to the unimodal event

Compound: CC(C)(C)NC(=O)c1cc(NC(=O)Cc2cc(Cl)ccc2O)ccn1 [Form B(I), N-tert-Butyl-4-[[2-(5-chloro-2-hydroxy-phenyl)acetyl]amino]pyridine-2-carboxamide]
- form stability to constant thermocycling (XRPD, DSC, TGA, microscopy) [3, 12]: stable
- form after suspension equilibration in anhydrous acetonitrile (XRPD) ([9]; 5 hours, 5 days similar): rapidly converted to Form A
- form after 10 tonne compaction (DSC) [10]: unchanged
- form change by XRPD and DSC after thermocycling [6]: unchanged

Compound: CC(C)(C)NC(=O)c1cc(NC(=O)Cc2cc(Cl)ccc2O)ccn1 [Form A + Form F (1/1 w/w)]
- Output form (XRPD) ([4]; 20 ° C.): Form A

Source: patent US12281077B2, “Solid forms of n-tert-butyl-4[[2-(5-chloro-2-hydroxy-phenyl)acetyl]amino]pyridine-2-carboxamide” (TMEM16A LIMITED, priority 2019, dated 2025)
